PubChem BioAssay (NCI)
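Growth conditions: 96-well plates. Treatment: test compound, 48 hours, 5 concentrations. Analysis: linear interpolation between bracketing concentrations; unreached endpoints set to highest concentration. GI50: concentration for 50% inhibition of growth. At the TGI there is no net growth.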

Experiments:
Test in all cases: growth of human tumour cells (NCI), 48 h; in the data active means GI50 below about 0.43 µM; inactive means the rest
LOX IMVI melanoma = test system: LOX IMVI melanoma
IGROV1 ovarian = test system: IGROV1 ovarian
786-0 renal = test system: 786-0 renal
SF-539 CNS = test system: SF-539 CNS
UACC-62 melanoma = test system: UACC-62 melanoma
SNB-19 CNS = test system: SNB-19 CNS
NCI-H522 lung = test system: NCI-H522 lung
CCRF-CEM leukemia = test system: CCRF-CEM leukemia
HCT-116 colon = test system: HCT-116 colon
A549 NSCLC = test system: A549 NSCLC
M14 melanoma = test system: M14 melanoma
DLD-1 colon = test system: DLD-1 colon
SK-MEL-28 melanoma = test system: SK-MEL-28 melanoma
OVCAR-8 ovarian = test system: OVCAR-8 ovarian
SR leukemia = test system: SR leukemia
NCI-H460 lung = test system: NCI-H460 lung
XF 498 CNS = test system: XF 498 CNS
HCT-15 colon = test system: HCT-15 colon
COLO 205 colon = test system: COLO 205 colon
K-562 leukemia = test system: K-562 leukemia
HCC-2998 colon = test system: HCC-2998 colon
NCI-H23 lung = test system: NCI-H23 lung
SNB-75 CNS = test system: SNB-75 CNS
M19-MEL melanoma = test system: M19-MEL melanoma
SK-MEL-2 melanoma = test system: SK-MEL-2 melanoma
UACC-257 melanoma = test system: UACC-257 melanoma
SF-295 CNS = test system: SF-295 CNS
UO-31 renal = test system: UO-31 renal
LXFL 529 NSCLC = test system: LXFL 529 NSCLC
SNB-78 CNS = test system: SNB-78 CNS
SK-MEL-5 melanoma = test system: SK-MEL-5 melanoma
HOP-62 NSCLC = test system: HOP-62 NSCLC
RXF-631 renal = test system: RXF-631 renal
DMS 114 small cell lung = test system: DMS 114 small cell lung
MALME-3M melanoma = test system: MALME-3M melanoma
HT29 colon = test system: HT29 colon
EKVX NSCLC = test system: EKVX NSCLC
HL-60(TB) leukemia = test system: HL-60(TB) leukemia
OVCAR-4 ovarian = test system: OVCAR-4 ovarian
HOP-18 NSCLC = test system: HOP-18 NSCLC
ACHN renal = test system: ACHN renal
CAKI-1 renal = test system: CAKI-1 renal
TK-10 renal = test system: TK-10 renal
KM12 colon = test system: KM12 colon
SF-268 CNS = test system: SF-268 CNS
U251 CNS = test system: U251 CNS
MOLT-4 leukemia = test system: MOLT-4 leukemia
NCI-H226 lung = test system: NCI-H226 lung
OVCAR-3 ovarian = test system: OVCAR-3 ovarian
KM20L2 colon = test system: KM20L2 colon
SK-OV-3 ovarian = test system: SK-OV-3 ovarian
SW-620 colon = test system: SW-620 colon
OVCAR-5 ovarian = test system: OVCAR-5 ovarian
RPMI-8226 leukemia = test system: RPMI-8226 leukemia

CC[O-].CC[O-].CN(C)c1ccc([O-])cc1.CN(C)c1ccc([O-])cc1.[Ti+4]
> 100 µM: TGI (LOX IMVI melanoma) | TGI (IGROV1 ovarian) | TGI (786-0 renal) | TGI (SF-539 CNS) | TGI (UACC-62 melanoma) | TGI (SNB-19 CNS) | TGI (NCI-H522 lung) | TGI (CCRF-CEM leukemia) | TGI (HCT-116 colon) | TGI (A549 NSCLC) | TGI (M14 melanoma) | TGI (DLD-1 colon) | TGI (SK-MEL-28 melanoma) | TGI (OVCAR-8 ovarian) | TGI (SR leukemia) | TGI (XF 498 CNS) | TGI (HCT-15 colon) | TGI (COLO 205 colon) | TGI (K-562 leukemia) | TGI (HCC-2998 colon) | TGI (NCI-H23 lung) | TGI (SNB-75 CNS) | TGI (M19-MEL melanoma) | TGI (SK-MEL-2 melanoma) | TGI (UACC-257 melanoma) | TGI (SF-295 CNS) | TGI (UO-31 renal) | TGI (LXFL 529 NSCLC) | TGI (SNB-78 CNS) | TGI (SK-MEL-5 melanoma) | TGI (HOP-62 NSCLC) | TGI (RXF-631 renal) | TGI (DMS 114 small cell lung) | TGI (MALME-3M melanoma) | TGI (EKVX NSCLC) | TGI (HL-60(TB) leukemia) | TGI (OVCAR-4 ovarian) | TGI (HOP-18 NSCLC) | TGI (ACHN renal) | TGI (CAKI-1 renal) | TGI (TK-10 renal) | TGI (KM12 colon) | TGI (SF-268 CNS) | TGI (U251 CNS) | TGI (MOLT-4 leukemia) | TGI (NCI-H226 lung) | TGI (OVCAR-3 ovarian) | TGI (KM20L2 colon) | TGI (SK-OV-3 ovarian) | TGI (SW-620 colon) | TGI (OVCAR-5 ovarian) | TGI (RPMI-8226 leukemia)
49.5 µM: TGI (HT29 colon)
75 µM: TGI (NCI-H460 lung)
inactive: GI50 (LOX IMVI melanoma) 38.6 µM | GI50 (IGROV1 ovarian) > 100 µM | GI50 (786-0 renal) 32 µM | GI50 (SF-539 CNS) 30.8 µM | GI50 (UACC-62 melanoma) > 100 µM | GI50 (SNB-19 CNS) > 100 µM | GI50 (NCI-H522 lung) 52.3 µM | GI50 (CCRF-CEM leukemia) 36.4 µM | GI50 (HCT-116 colon) 52.5 µM | GI50 (A549 NSCLC) 54.4 µM | GI50 (M14 melanoma) 98.4 µM | GI50 (DLD-1 colon) 61.4 µM | GI50 (SK-MEL-28 melanoma) > 100 µM | GI50 (OVCAR-8 ovarian) 36.8 µM | GI50 (SR leukemia) 72.2 µM | GI50 (NCI-H460 lung) 27.7 µM | GI50 (XF 498 CNS) > 100 µM | GI50 (HCT-15 colon) 61.4 µM | GI50 (COLO 205 colon) 58.4 µM | GI50 (K-562 leukemia) 29.1 µM | GI50 (HCC-2998 colon) 53.6 µM | GI50 (NCI-H23 lung) 70.6 µM | GI50 (SNB-75 CNS) > 100 µM | GI50 (M19-MEL melanoma) 39.3 µM | GI50 (SK-MEL-2 melanoma) > 100 µM | GI50 (UACC-257 melanoma) 28.7 µM | GI50 (SF-295 CNS) 48.7 µM | GI50 (UO-31 renal) > 100 µM | GI50 (LXFL 529 NSCLC) 68.2 µM | GI50 (SNB-78 CNS) > 100 µM | GI50 (SK-MEL-5 melanoma) 99.8 µM | GI50 (HOP-62 NSCLC) > 100 µM | GI50 (RXF-631 renal) 66.1 µM | GI50 (DMS 114 small cell lung) 35 µM | GI50 (MALME-3M melanoma) 82.9 µM | GI50 (HT29 colon) 21.3 µM | GI50 (EKVX NSCLC) > 100 µM | GI50 (HL-60(TB) leukemia) 46.4 µM | GI50 (OVCAR-4 ovarian) > 100 µM | GI50 (HOP-18 NSCLC) > 100 µM | GI50 (ACHN renal) 40.9 µM | GI50 (CAKI-1 renal) > 100 µM | GI50 (TK-10 renal) > 100 µM | GI50 (KM12 colon) 29.3 µM | GI50 (SF-268 CNS) 36.4 µM | GI50 (U251 CNS) 39 µM | GI50 (MOLT-4 leukemia) 32.4 µM | GI50 (NCI-H226 lung) > 100 µM | GI50 (OVCAR-3 ovarian) 56.1 µM | GI50 (KM20L2 colon) 61.7 µM | GI50 (SK-OV-3 ovarian) > 100 µM | GI50 (SW-620 colon) 70.5 µM | GI50 (OVCAR-5 ovarian) > 100 µM | GI50 (RPMI-8226 leukemia) 95.7 µM
